In paper PMC9928118, “Funneling modulatory peptide design with generative models: Discovery and characterization of disruptors of calcineurin protein-protein interactions” (PLOS Computational Biology, 2023):

Tests used:
[1] = tested on: GST-tagged Cn; assay: PEPperPRINT peptide microarray binding assay with GST-tagged Cn; details: GST-tagged Cn, mean over the duplicate spots (Location on chip)
In short: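 Qualitative binding: peptides printed on a PEPperPRINT microarray were incubated overnight at 4 °C with 1 mg/ml GST-tagged Cn, then detected with Alexa-Fluor 647 anti-GST antibody. Log fluorescence was baseline-corrected, averaged over duplicate spots, Z-normalized and averaged across five repeats.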

[2] = tested on: GST-tagged Cn; assay: as above; details: max over the duplicate spots (Location on chip)

SFWTNPQFIITLQEED [SeqRBMlowT_7307]
Chip Fluorescence (mean) [1]: 0.8738 | Chip Fluorescence (max) [2]: 2.363

KSKRIPKLSVVSPVHH [SeqRBM_6422]
Chip Fluorescence (mean) [1]: 0.728 | Chip Fluorescence (max) [2]: 2.115

GNDDCPEVVVHPPEED [SeqRBMlowT_7697]
Chip Fluorescence (mean) [1]: 0.9366 | Chip Fluorescence (max) [2]: 2.095

PSHSIPKHSWESAVEH [SeqRBM_3394]
Chip Fluorescence (mean) [1]: -0.5716 | Chip Fluorescence (max) [2]: 2.053

RNPESPVLELEGHSSP [SeqRBMlowT_6390]
Chip Fluorescence (mean) [1]: 1.113 | Chip Fluorescence (max) [2]: 2.243

LNDEIPEVRLNIISAL [SeqRBMlowT_4170]
Chip Fluorescence (mean) [1]: -0.4845 | Chip Fluorescence (max) [2]: 2.3229

LMDLCPVVRLQIISAL [SeqRBM_7616]
Chip Fluorescence (mean) [1]: 0.2546 | Chip Fluorescence (max) [2]: 2.223

PSIYQEVLGIGNFSLS [SeqRBMlowT_4899]
Chip Fluorescence (mean) [1]: 0.7614 | Chip Fluorescence (max) [2]: 2.16

TFWTNPQFRIKLEEPD [SeqRBMlowT_8]
Chip Fluorescence (mean) [1]: -0.1106 | Chip Fluorescence (max) [2]: 2.218

YCQWSNRATQIGHKPT [Seqrandom_9979]
Chip Fluorescence (mean) [1]: -0.2818 | Chip Fluorescence (max) [2]: 2.027

ASSANPEITVTPAELP [SeqRBMlowT_4424]
Chip Fluorescence (mean) [1]: 0.4111 | Chip Fluorescence (max) [2]: 2.528

PSLYENALGMESFTIS [SeqRBMlowT_2807]
Chip Fluorescence (mean) [1]: -0.3855 | Chip Fluorescence (max) [2]: 2.474

RTYINPFMQFNRGGRK [SeqRBM_3856]
Chip Fluorescence (mean) [1]: 0.8441 | Chip Fluorescence (max) [2]: 2.196

HVSSSPDVTLKPPQHR [SeqRBMlowT_2147]
Chip Fluorescence (mean) [1]: 0.4725 | Chip Fluorescence (max) [2]: 2.217

RAYINPFMQFTFDSNK [SeqRBMlowT_4738]
Chip Fluorescence (mean) [1]: 0.6521 | Chip Fluorescence (max) [2]: 2.119

GGPSTPGRQNNPLAPS [SeqRTS1_Zymoseptoria_tritici]
Chip Fluorescence (mean) [1]: -0.03327 | Chip Fluorescence (max) [2]: 2.314

RSKFIPKLSLQSPVHH [SeqRBMlowT_1791]
Chip Fluorescence (mean) [1]: 0.1659 | Chip Fluorescence (max) [2]: 2.2877

LSLYVNALGMESFTIS [SeqRBM_9141]
Chip Fluorescence (mean) [1]: 0.3343 | Chip Fluorescence (max) [2]: 2.172

KAYMCPYGSFTYGGRR [SeqRBM_3412]
Chip Fluorescence (mean) [1]: 0.9697 | Chip Fluorescence (max) [2]: 2.568

EPYVAFFYQFSHDPKS [Seqshuffled_9939]
Chip Fluorescence (mean) [1]: -0.878 | Chip Fluorescence (max) [2]: 2.266

TFWSNPQFKITLEEPD [SeqRBMlowT_5528]
Chip Fluorescence (mean) [1]: 0.877 | Chip Fluorescence (max) [2]: 2.1472

TFWSNPQFRLKLEDPD [SeqRBMlowT_6883]
Chip Fluorescence (mean) [1]: 1.226 | Chip Fluorescence (max) [2]: 2.274

TFWTNPQYRIKLEEVD [SeqRBMlowT_627]
Chip Fluorescence (mean) [1]: -1.639 | Chip Fluorescence (max) [2]: 1.99

PNKICGQRSFDGEHQN [Seqshuffled_9648]
Chip Fluorescence (mean) [1]: -0.254 | Chip Fluorescence (max) [2]: 2.3848

KKMSPPCISVHPPDED [SeqRBMlowT_7695]
Chip Fluorescence (mean) [1]: 0.511 | Chip Fluorescence (max) [2]: 2.045

STSSLPTFSFSSPLSS [SeqRBMlowT_2357]
Chip Fluorescence (mean) [1]: 0.4296 | Chip Fluorescence (max) [2]: 2.106

QWSLGVGIVITVTETM [SeqRBM_1755]
Chip Fluorescence (mean) [1]: 0.7956 | Chip Fluorescence (max) [2]: 2.2853

KAYMCPYMQFIAGGRK [SeqRBM_8989]
Chip Fluorescence (mean) [1]: 0.7869 | Chip Fluorescence (max) [2]: 1.932

FQTDAPTIPIDQAPIC [SeqRBM_9788]
Chip Fluorescence (mean) [1]: 0.3576 | Chip Fluorescence (max) [2]: 1.993

TFFINPQFKASLTEMD [SeqRBM_564]
Chip Fluorescence (mean) [1]: 0.5882 | Chip Fluorescence (max) [2]: 2.053

TFWTNPQFVVSLPEED [SeqRBMlowT_8537]
Chip Fluorescence (mean) [1]: -0.2871 | Chip Fluorescence (max) [2]: 2.16

LRDEVPEVRLNIISDL [SeqRBM_180]
Chip Fluorescence (mean) [1]: -0.2367 | Chip Fluorescence (max) [2]: 2.2011

TFWTNPQYRITLEDPD [SeqRBMlowT_604]
Chip Fluorescence (mean) [1]: -0.2036 | Chip Fluorescence (max) [2]: 2.534

NNLAINDVTAGDRGCY [SeqRBM_1373]
Chip Fluorescence (mean) [1]: 1.818 | Chip Fluorescence (max) [2]: 2.1787

STPLPQGAPISPNTLA [Seqshuffled_9522]
Chip Fluorescence (mean) [1]: -0.4537 | Chip Fluorescence (max) [2]: 2.383

KAYMCPFMQFIDGGRR [SeqRBMlowT_502]
Chip Fluorescence (mean) [1]: -0.1535 | Chip Fluorescence (max) [2]: 2.385

TFWANPQITITLAELD [SeqRBMlowT_7358]
Chip Fluorescence (mean) [1]: 0.7622 | Chip Fluorescence (max) [2]: 2.261

RFYINPFVQFSDGGNN [SeqRBM_1053]
Chip Fluorescence (mean) [1]: -0.5027 | Chip Fluorescence (max) [2]: 2.558

FTMKFAWALPQCYVHC [Seqrandom_9941]
Chip Fluorescence (mean) [1]: 0.4694 | Chip Fluorescence (max) [2]: 2.049

KNARGPLIIIHPMEED [SeqRBM_1913]
Chip Fluorescence (mean) [1]: 1.192 | Chip Fluorescence (max) [2]: 2.283

KAYMNPFMQFIDGGRK [SeqRBMlowT_6686]
Chip Fluorescence (mean) [1]: 0.8271 | Chip Fluorescence (max) [2]: 2.02

RAYMNPSVCFTDGGAR [SeqRBM_6787]
Chip Fluorescence (mean) [1]: 0.3113 | Chip Fluorescence (max) [2]: 1.921

TFWTNPQFKVSLEEPD [SeqRBMlowT_97]
Chip Fluorescence (mean) [1]: 0.2931 | Chip Fluorescence (max) [2]: 2.43

LSSSNPEITVTPAELD [SeqRBMlowT_6234]
Chip Fluorescence (mean) [1]: -0.4808 | Chip Fluorescence (max) [2]: 1.968

TFWTNPQFRVHLEDED [SeqRBMlowT_4265]
Chip Fluorescence (mean) [1]: 1.067 | Chip Fluorescence (max) [2]: 1.93

TFWTNPQYVITLPEED [SeqRBMlowT_4660]
Chip Fluorescence (mean) [1]: 0.3942 | Chip Fluorescence (max) [2]: 1.913

TFWTNPQFRIKLEDED [SeqRBMlowT_645]
Chip Fluorescence (mean) [1]: 1.091 | Chip Fluorescence (max) [2]: 2.265

RNPGTFLLTLRGHKKQ [SeqRBMlowT_5813]
Chip Fluorescence (mean) [1]: 1.08 | Chip Fluorescence (max) [2]: 2.447

SSLYENALGIESFTLS [SeqRBMlowT_2888]
Chip Fluorescence (mean) [1]: 0.9732 | Chip Fluorescence (max) [2]: 2.496

GNKEFSPLNVEGLSGN [Seqshuffled_9463]
Chip Fluorescence (mean) [1]: 0.833 | Chip Fluorescence (max) [2]: 2.018

ASEANPEITVTPAELP [SeqRBMlowT_1250]
Chip Fluorescence (mean) [1]: -0.04845 | Chip Fluorescence (max) [2]: 2.513

PGQMQPSINVMAEKNP [SeqRBM_977]
Chip Fluorescence (mean) [1]: -0.5544 | Chip Fluorescence (max) [2]: 1.973

KKMAPPAINIDPAPTN [SeqRBMlowT_321]
Chip Fluorescence (mean) [1]: -0.1981 | Chip Fluorescence (max) [2]: 2.529

VEALSSRYGMATNLTG [Seqshuffled_4257]
Chip Fluorescence (mean) [1]: 0.2313 | Chip Fluorescence (max) [2]: 2.043

HPYMGPKIQFHSGGRK [SeqRBM_457]
Chip Fluorescence (mean) [1]: 0.3342 | Chip Fluorescence (max) [2]: 2.294

KELANLRVTPPDNGTL [SeqRBM_2710]
Chip Fluorescence (mean) [1]: 0.2344 | Chip Fluorescence (max) [2]: 2.355

ADETQPGIVVHVCELP [SeqRBMlowT_352]
Chip Fluorescence (mean) [1]: 0.6468 | Chip Fluorescence (max) [2]: 2.166

HCRFEWPFGFSMIRYP [Seqrandom_9994]
Chip Fluorescence (mean) [1]: -1.666 | Chip Fluorescence (max) [2]: 2.458

TFWTNPQITVTLAEDD [SeqRBMlowT_3250]
Chip Fluorescence (mean) [1]: 1.296 | Chip Fluorescence (max) [2]: 2.572

HDLQCVINLHENACKT [Seqrandom_9996]
Chip Fluorescence (mean) [1]: -0.1329 | Chip Fluorescence (max) [2]: 2.151

STASLPSFNFSFLTSS [SeqNUP153_Antrostomus_carolinensis]
Chip Fluorescence (mean) [1]: -0.1064 | Chip Fluorescence (max) [2]: 2.477

KAYMCPYMQFIEGGRR [SeqSFB3_Ictalurus_punctatus]
Chip Fluorescence (mean) [1]: 1.763 | Chip Fluorescence (max) [2]: 2.501

GSLLIPHCDMSAGGSY [SeqRBM_2528]
Chip Fluorescence (mean) [1]: -0.05077 | Chip Fluorescence (max) [2]: 2.002

TFMMNPQYRLYKSVSP [SeqRBM_6553]
Chip Fluorescence (mean) [1]: 0.3935 | Chip Fluorescence (max) [2]: 2.027

ADEAVPLIDIAMAEYP [SeqRBM_3950]
Chip Fluorescence (mean) [1]: 0.7456 | Chip Fluorescence (max) [2]: 2.42

PMKTRGLYGWPPCAKW [Seqrandom_5226]
Chip Fluorescence (mean) [1]: 0.996 | Chip Fluorescence (max) [2]: 2.284

RQPGSPVLELSGHSAN [SeqRBMlowT_5862]
Chip Fluorescence (mean) [1]: 0.5615 | Chip Fluorescence (max) [2]: 2.053

TFWTNPQYRLKLEEPD [SeqRBMlowT_264]
Chip Fluorescence (mean) [1]: 0.9748 | Chip Fluorescence (max) [2]: 2.584

GTDLRQQTAAQPNDGA [Seqshuffled_4362]
Chip Fluorescence (mean) [1]: 0.6141 | Chip Fluorescence (max) [2]: 2.523

TFWMNPQYRITLEEPD [SeqRBMlowT_2265]
Chip Fluorescence (mean) [1]: 0.1767 | Chip Fluorescence (max) [2]: 2.207

HSKLIPKLSIQSPVEH [SeqRBMlowT_3447]
Chip Fluorescence (mean) [1]: 0.373 | Chip Fluorescence (max) [2]: 2.177

TFNNNPQATVRRTDID [SeqRBM_1961]
Chip Fluorescence (mean) [1]: 0.6511 | Chip Fluorescence (max) [2]: 1.877

YTQIFPKCAMTIIKRK [Seqrandom_9966]
Chip Fluorescence (mean) [1]: 0.5369 | Chip Fluorescence (max) [2]: 2.341

TFWTNPQYKITLEDPD [SeqRBMlowT_219]
Chip Fluorescence (mean) [1]: 1.018 | Chip Fluorescence (max) [2]: 2.355

HIIIVWAVSEVKYVQL [Seqrandom_9992]
Chip Fluorescence (mean) [1]: 0.6897 | Chip Fluorescence (max) [2]: 1.914

RTYINPFMQFTYDGRR [SeqRBMlowT_4071]
Chip Fluorescence (mean) [1]: 1.243 | Chip Fluorescence (max) [2]: 1.896

RQPGQALLELRGHSAS [SeqRBMlowT_7735]
Chip Fluorescence (mean) [1]: 0.19 | Chip Fluorescence (max) [2]: 2.013

LLDNVPAVHVHDMGGH [SeqRBM_9035]
Chip Fluorescence (mean) [1]: 0.6608 | Chip Fluorescence (max) [2]: 1.904

GAYMCPFMSWQDCGQR [SeqRBMlowT_4796]
Chip Fluorescence (mean) [1]: 0.4498 | Chip Fluorescence (max) [2]: 2.042

DCIGFCSVPVMYAPNH [Seqrandom_1239]
Chip Fluorescence (mean) [1]: -0.3019 | Chip Fluorescence (max) [2]: 2.175
